These results are taken from US20070032477A1, “Pteridine derivatives useful for making pharmaceutical compositions” (priority 2003, published 2007).

Counter-ions that a name gives are not always drawn.

Data set [1] can be described thus: Mixed lymphocyte reaction (MLR) assay. In kind it is cell-based, human. The settings on record: Homo sapiens, Lymphocyte; lowest concentration giving 50% suppression of the MLR; [3H]-thymidine.
Data set [2] has as its system production of TNF-α by PBMC in response to stimulation by LPS. The experiment in a line: TNF-α assay. In kind it is cell-based, human. To be noted: LPS 1 μg/ml, 72 hours, sandwich ELISA. The method in brief: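 Cells were LPS-stimulated (1 μg/ml final) peripheral blood mononuclear cells at 10^6/ml, exposed 72 h at 37 °C to 0.1, 1 or 10 μM test compound.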
Background: ELISA stands for enzyme-linked immunosorbent assay.

A short description of data set [3]: Plasma levels after oral administration in healthy mice. In kind it is in vivo, C57BL/6 mice. To be noted: 20 mg/kg once a day. The method, then:
Each group of 6 mice received the indicated dose at time point 0 and were bled at 1, 3 and 5 hours after compound administration. Quantification was performed using a calibration curve of known compound concentrations spiked in control serum.
The plasma levels of the tested compound (example 176) was evaluated in C57BL/6 mice 8-10 weeks old Harlan, weighing 18.6-22.0 g after oral administration of 20, 10, 5 and 1 mg/kg, respectively (n=6 per dose). The tested compound (example 176) was dissolved in water to the appropriate concentration in order to deliver a constant gavage volume of 10 μl/g of body weight. Blood was collected by eye bleeding with heparinized capillaries at 1, 3, and 5 hours after dosing from each animal. The plasma fraction was immediately separated by centrifugation for 2 minutes at 12,000 g and stored at −80° C. until analysis. Each plasma sample was spiked with internal standard followed by the addition of 4 volumes of methanol. The samples were kept for 30 minutes on ice prior to centrifugation (10 minutes at 12,000 g) in order to remove precipitated proteins. The supernatant was analyzed for the presence of the tested compound (example 176), using LC/MS/MS. As standard for the bio-analysis, the tested compound (example 176) was diluted stepwise; each dilution was added to control plasma; additionally spiked with internal standard, giving rise to standard curves from 200 to 40,000 nM.

The test system of data set [4] is mixed lymphocyte reaction (PBMC with allogeneic PBMC or Eppstein-Barr Virus-transformed human B cells as stimulator cells). The experiment in a line: Mixed lymphocyte reaction (MLR) assay. In kind it is cell-based. To be noted: lowest concentration giving 50% suppression of the MLR; [3H]-thymidine.
Data set [5] has as its system CII induced rheumatoid arthritis in DBA mice. The experiment in a line: Collagen type II induced model of rheumatoid arthritis. The settings on record: mice in vivo; example 17 up to 40 mg/kg/day; methotrexate 10 mg/kg/day, 3 times a week. An excerpt:
Collagen type II (hereinafter referred as CII) induced experimental model of rheumatoid arthritis (hereinafter referred as RA) in DBA mice is widely accepted as the most relevant and predictive preclinical model for RA. In this model, DBA mice are immunized with CII, the collagen type mainly present in the joint structures, together with complete Freund Adjuvant in their tail. 2 to 3 weeks later, several of the immunized mice start to develop arthritis in the four footpaths. In order to further worsen the disease, mice are given a second CII boost at three weeks after the first immunisation, this time however in a footpath. Because the immune system is already immunised in these mice, this rapidly provokes a severe swelling of the injected footpath (named Delayed Type Hypersensitivity or DTH) which can be used as a measurement for T-cell activation. Within a few days after the booster, almost all untreated animals start developing symptoms of arthritis. RA development is scored from 0 to 16 (16 being severe clinical arthritis in all four footpaths). At the end of the study (3 weeks after the CII boost) antibody formation was determined against CII and histology performed on the footpaths.
The efficiency of the pteridine derivative of example 17 (administered in an amount of 20 mg/kg/day, started one day before the CII boost) was explored in this CII-model.

What is called IC50 is the concentration needed to halve the response being measured. A higher IC50 goes with weaker potency. As to `COc1ccc(-c2cnc3nc(N)nc(N4CCN(CCC5OCCO5)CC4)c3n2)cc1OC` [Example 164, 2-amino-6-(3,4-dimethoxyphenyl)-4-(4-(2-(1,3)-dioxolan-2-yl-ethyl)-piperazin-1-yl)pteridine], the concentration for half-maximal inhibition (IC50) was determined as 2300 nM in data set [1] and 200 nM in data set [2] (Homo sapiens).

In the case of `CCOCCN1CCN(c2nc(N)nc3ncc(-c4ccc(OC)c(OC)c4)nc23)CC1` [Example 165, 2-amino-6-(3,4-dimethoxyphenyl)-4-(4-(2-ethoxyethyl)-piperazin-1-yl)pteridine], the IC50 worked out at 2900 nM in data set [1] and 300 nM in data set [2] (Homo sapiens).

Take `COc1ccc(-c2cnc3nc(N)nc(N4CCN(CCN5CCCCC5)CC4)c3n2)cc1OC` [Example 184, 2-amino-6-(3,4-dimethoxyphenyl)-4-(4-(2-piperidin-1-yl-ethyl)-piperazin-1-yl)pteridine trihydrochloride salt]: the IC50 in data set [1] came to 7700 nM; in data set [2] (Homo sapiens), 700 nM.

For `CCCCCC(=O)N1CCN(c2nc(N)nc3ncc(-c4ccc(OC)c(OC)c4)nc23)CC1` [Example 10, 2-amino-4-[(N-hexanoyl)-piperazin-1-yl]-6-(3,4-dimethoxyphenyl)pteridine], the “serum concentrations versus in vitro IC50 for IL-1β production or T cell activation” value in data set [3] is “insufficient to inhibit IL-1β production or T cell activation”. Further, the concentration for half-maximal inhibition (IC50) in data set [4] came out at 100 nM; in data set [2], 70 nM.

Consider `COc1ccc(-c2cnc3nc(N)nc(N4CCC(C(=O)CN5CCNCC5)C4)c3n2)cc1OC` (centres unmarked) [Example 131, 2-amino-4-(4-[2-(piperazin-1-yl)-acetyl]-pyrrolidino)-6-(3,4-dimethoxy-phenyl)pteridine], for which the IC50 in data set [1] amounted to 300 nM; in data set [2] (Homo sapiens), 1900 nM.

On to `CCCN(CCC)CCN1CCN(c2nc(N)nc3ncc(-c4ccc(OC)c(OC)c4)nc23)CC1` [Example 183, 2-amino-6-(3,4-dimethoxyphenyl)-4-(4-(2-dipropylaminoethyl)-piperazin-1-yl)pteridine trihydrochloride salt], for which the values for the IC50 in data set [1] and in data set [2] (Homo sapiens) were 8200 nM and 1200 nM, respectively.

Consider `CN(Cc1cnc2nc(N)nc(N)c2n1)c1ccc(C(=O)N[C@@H](CCC(=O)O)C(=O)O)cc1` [methotrexate, reference compound], for which the “mortality or cytotoxic effect on increasing the dose” value in data set [5] is listed as “death of all animals”.
